Values of other authors as cited in patent US7429679B2, “Sulphonic acid salt of sibutramine” (CJ Corporation, priority 2005, dated 2008).

Tested on: mouse
Conditions: intravenous; cited from earlier work

| SMILES | LDL0 |
| --- | --- |
| CCS(=O)(=O)O [ethanesulfonic acid] | 48 mg/kg |
| O=S(=O)(O)CCS(=O)(=O)O [ethane disulfonic acid] | 68 mg/kg |
